Measured values published in the supplement of paper PMC8671470.

Legend:
Test in all cases: cell viability (% survival relative to DMSO control); higher = less cytotoxic
Conditions in all cases: 72 h
[1] = test system: myeloid leukemia patient primary cells Pat.12
Summary of the method: (§1)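 Thawed mononuclear cells from AML or CML patients were purified on Ficoll and cultured for 72 h in RPMI 1640 with 10% FBS, at 10,000 cells/well, on 384-well plates carrying 70 pre-printed compounds at 1–10,000 nM in five tenfold steps, in duplicate. Viability came from CellTiter-Glo, normalised against DMSO and against 10 μM proteasome inhibitor. Any area under the curve given was derived from log-logistic curve fits in the drc and PharmacoGx R packages, and these fits had four parameters.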

[2] = test system: myeloid leukemia patient primary cells Pat.14
Summary of the method: as §1

[3] = test system: myeloid leukemia patient primary cells Pat.15
Summary of the method: as §1

SMILES | cell viability ([1]; 1 nM) | cell viability ([1]; 10 nM) | cell viability ([1]; 100 nM) | cell viability ([1]; 1000 nM) | cell viability ([1]; 10000 nM) | cell viability ([2]; 1 nM) | cell viability ([2]; 10 nM) | cell viability ([2]; 100 nM) | cell viability ([2]; 1000 nM) | cell viability ([2]; 10000 nM) | cell viability ([3]; 1 nM) | cell viability ([3]; 10 nM) | cell viability ([3]; 100 nM) | cell viability ([3]; 1000 nM) | cell viability ([3]; 10000 nM)
CCOC(=O)N1c2ccc(C(F)(F)F)cc2[C@@H](N(Cc2cc(C(F)(F)F)cc(C(F)(F)F)c2)C(=O)OC)C[C@H]1CC [Torcetrapib] | 93.2% | 82.7% | 94.3% | 89.7% | 79% | 84.7% | 51% | > 100% | 78.3% | 41.7% | 98.5% | 86% | 97.7% | 87.1% | 75.8%
Nc1ccn([C@@H]2O[C@H](CO)[C@@H](O)[C@@H]2O)c(=O)n1 [Cytarabine] | 96.3% | 94.1% | > 100% | 97.1% | 67.7% | 85.1% | 65.1% | 78.1% | 62.9% | 15.8% | 94.5% | 86.4% | 99.6% | 81% | 32.8%
Cc1noc2c1-c1ccccc1C(c1ccc(Cl)cc1)=N[C@H]2CC(N)=O [CPI-0610] | 96.7% | 90.2% | 98.4% | 82.8% | 80.9% | > 100% | 84.9% | 86.4% | 60.3% | 60.7% | 95.1% | 94.6% | 76.1% | 3.36% | 1.08%
Clc1ccc(COC(Cn2ccnc2)c2ccc(Cl)cc2Cl)cc1 (stereo not given) [Econazole] | 89.2% | 94.9% | 95.7% | 96.5% | 90.3% | 64.1% | 90.1% | 82.3% | 76.3% | 0.228% | 84.3% | 92.6% | 98.3% | 89.4% | 68.7%
COc1c(C)c2c(c(O)c1C/C=C(\C)CCC(=O)O)C(=O)OC2 [Mycophenolic acid] | > 100% | > 100% | 85.9% | > 100% | 80.5% | 75.3% | 83.7% | 65.6% | 95.5% | 93.4% | 91.6% | 94.3% | 86.7% | > 100% | 84.3%
CC(Cc1ccc(O)c(O)c1)C(C)Cc1ccc(O)c(O)c1 (stereo not given) [Masoprocol] | 91.2% | 96.6% | 98.3% | 89% | 35.1% | > 100% | 85.7% | 96.7% | 55.8% | 68.1% | 89% | 93.8% | 94.4% | 80.9% | 31.1%
CCN(CC)CCN(Cc1ccc(-c2ccc(C(F)(F)F)cc2)cc1)C(=O)Cn1c(SCc2ccc(F)cc2)nc(=O)c2c1CCC2 [Darapladib] | 94.6% | 97.5% | 85.3% | 92.2% | < 0% | 65.7% | 92.2% | 52.5% | 52.1% | 2.36% | 82.5% | > 100% | 85.8% | 96% | 0.433%
CC12CCC(O)CC1CCC1C2CCC2(C)C(C3=CC(=O)OC3)CCC12O (stereo not given) [Digitoxigenin] | 97.4% | 96% | 94.2% | 58.7% | 16.8% | 95% | 66.5% | 78.4% | 22.2% | 18.3% | > 100% | 92.9% | 97.5% | 8.87% | 2.72%
Sc1ncnc2nc[nH]c12 [6-mercaptopurine] | > 100% | 95.9% | 93.6% | 97.3% | > 100% | 92.6% | > 100% | 74.8% | 97.9% | 88% | 99.2% | > 100% | 98.5% | 94.3% | 98.3%
C[C@]12O[C@H](C[C@]1(O)CO)n1c3ccccc3c3c4c(c5c6ccccc6n2c5c31)CNC4=O [Lestaurtinib] | > 100% | > 100% | 87% | > 100% | 1.77% | 80.7% | 43.5% | 77.9% | 40.6% | 4.31% | 97.1% | 61.3% | 43.7% | 2.83% | 0.259%
C[C@H]1O[C@@H](O[C@H]2[C@@H](O)C[C@H](O[C@H]3[C@@H](O)C[C@H](O[C@H]4CC[C@@]5(C)[C@H](CC[C@@H]6[C@@H]5C[C@@H](O)[C@]5(C)[C@@H](C7=CC(=O)OC7)CC[C@]65O)C4)O[C@@H]3C)O[C@@H]2C)C[C@H](O)[C@@H]1O [Digoxin] | 94.2% | 95% | 85.5% | 41.7% | 12.6% | 82.1% | 90.3% | 69.7% | 18.9% | 13.5% | 98.4% | 98.4% | 50.6% | 1.74% | 1.52%
